From PubChem BioAssay (NCI)
Where “and” joins values, the source holds several entries; their conditions need not be identical. Equal values may be shown once.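 These data come from cells grown in 96-well plates and exposed to compound for 48 hours at five concentrations. GI50: concentration for 50% inhibition of growth. TGI: total growth inhibition.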

Tests used:
Assay in all cases: inhibition of tumour cell growth, NCI panel, 48 h
HCT-116 colon = test system: HCT-116 colon
MDA-MB-435 = test system: MDA-MB-435
NCI-H23 lung = test system: NCI-H23 lung
SNB-19 CNS = test system: SNB-19 CNS
OVCAR-4 ovarian = test system: OVCAR-4 ovarian
PC-3 prostate = test system: PC-3 prostate

Row | Structure (SMILES) | GI50 (HCT-116 colon) | TGI (HCT-116 colon) | GI50 (MDA-MB-435) | TGI (MDA-MB-435) | GI50 (NCI-H23 lung) | TGI (NCI-H23 lung) | GI50 (SNB-19 CNS) | TGI (SNB-19 CNS) | GI50 (OVCAR-4 ovarian) | TGI (OVCAR-4 ovarian) | GI50 (PC-3 prostate) | TGI (PC-3 prostate)
1 | N=C(N)c1ccc(OCCCCCOc2ccc(C(=N)N)cc2)cc1 | 4.59 µM | > 50 µM and 37.8 µM and > 100 µM | 3.99 µM | 13.4 µM and 23.2 µM and 42.9 µM | 3.34 µM | > 50 µM and 25.4 µM and 29 µM | 2.79 µM | 24.5 µM and 54.6 µM and 32.3 µM | 3.6 µM | 18.7 µM and 35.4 µM and 53.5 µM | 6.92 µM | > 100 µM
2 | Cc1cn2c(/C=C3/C(=O)Nc4ccc(C(=O)O)cc43)c(C)nc2s1 | – | – | > 100 µM | > 100 µM | > 100 µM | > 100 µM | > 100 µM | > 100 µM | > 100 µM | > 100 µM | > 100 µM | > 100 µM
3 | CC1(C)N=C(N)N=C(N)N1c1ccc(OCCCCNC(=O)Nc2cccc(S(=O)(=O)F)c2)c(Cl)c1 | 0.594 µM | > 100 µM | 0.642 µM | > 100 µM | – | – | 2.91 µM | > 100 µM | 13.3 µM | > 100 µM | 0.0995 µM | > 100 µM
4 | Oc1c(I)cc(Cl)c2cccnc12 | 3.31 µM and 2.67 µM | 11.1 µM and 9.05 µM | 4.2 µM and 32.8 µM | > 100 µM | 3.74 µM and 8.04 µM | 31.4 µM and > 100 µM | 3.71 µM and 9.32 µM | > 100 µM | 2.82 µM and 4.39 µM | 13.8 µM and > 100 µM | 4.37 µM and 4.87 µM | 57.5 µM and 81.6 µM
5 | CCN(CCNc1ccc(C)c2sc3cc(Cl)ccc3c(=O)c12)CC(C)(C)O | 4.94 µM | 18.2 µM | 2 µM | 4.59 µM | 6.88 µM | 24.1 µM | 10.1 µM | 25.8 µM | 24.6 µM | > 100 µM | 12 µM | > 100 µM
6 | O=C(CN(/C=C/C(=O)C(F)(F)F)c1ccccc1)c1ccc(F)cc1 | 25.3 µM | 88.1 µM | 27.1 µM | 72.1 µM | 29.5 µM | > 100 µM | 46 µM | > 100 µM | 42.5 µM | > 100 µM | 29 µM | > 100 µM
7 | C=CC[PH+](c1ccccc1)c1ccccc1.C=CC[PH+](c1ccccc1)c1ccccc1.[Pt+2].[S-]c1ncccn1.[S-]c1ncccn1 | 2.17 µM | 4.88 µM | 16.3 µM | 33.8 µM | 17.9 µM | 59 µM | 58.9 µM | > 100 µM | 5.35 µM | > 100 µM | 11 µM | 37.7 µM
8 | COc1cc2c3c(n(CCCN4CCSCC4)c(=O)c2cc1OC)-c1cc2c(cc1C3=O)OCO2 | 73.1 µM | > 100 µM | > 100 µM | > 100 µM | > 100 µM | > 100 µM | 53.8 µM | > 100 µM | > 100 µM | > 100 µM | 42.8 µM | > 100 µM
9 | Cc1ccccc1CNc1c2ccccc2nc2ccccc12 | 1.11 µM | 8.31 µM | 1.67 µM | 3.18 µM | 1.71 µM | 4.24 µM | 3.27 µM | 13.7 µM | 1.92 µM | 6.4 µM | 1.88 µM | 8.79 µM
10 | O=C(Nc1ccc(Cl)c(C(F)(F)F)c1)C(=O)c1c(O)c2ccccc2oc1=O | – | > 100 µM | – | > 100 µM | – | > 100 µM | – | > 100 µM | – | > 100 µM | – | > 100 µM
11 | C=C(C)[C@@H]1CC[C@]2(C(=O)n3ccnc3)CC[C@]3(C)[C@H](CC[C@@H]4[C@@]5(C)CCCNC(C)(C)[C@@H]5CC[C@]43C)[C@@H]12 | 1.03 µM | 2.25 µM | – | – | 1.78 µM | 3.89 µM | 2.54 µM | 6.12 µM | – | – | 1.29 µM | 2.67 µM
12 | CCc1ccc(C2=NN(c3ccc(S(C)(=O)=O)cc3)C(=O)CC2)cc1 | 0.942 µM | > 39.2 µM | 0.212 µM | 0.804 µM | 1.85 µM | > 24.3 µM | 8.82 µM | > 100 µM | 7.14 µM | > 91.5 µM | 2.31 µM | > 100 µM
13 | O=C1c2ccccc2-c2c1c1ccc([N+](=O)[O-])cc1c(=O)n2CCCCl | 3.62 µM | > 100 µM | 31.7 µM | > 100 µM | 3.52 µM | 54.1 µM | – | – | – | – | 15.2 µM | > 100 µM
14 | CN1CCOCCOCCOc2ccccc2NC(=O)c2nc(cnc2N)-c2ccc(cc2)S1(=O)=O | – | – | – | – | – | – | 16.6 µM | > 100 µM | – | – | > 100 µM | > 100 µM
15 | O=C(Nc1ccc(Br)cc1)Nc1cccc(Br)c1 | – | – | – | – | – | – | 11.1 µM | > 100 µM | – | – | – | –
16 | O=C1C2C(C(=O)N1CC[Se][Se]CCN1C(=O)C3C(C1=O)[C@H]1C=C[C@@H]3C1)[C@H]1C=C[C@@H]2C1 (some centres not stated) | 0.409 µM | 2.87 µM | 0.267 µM | 0.744 µM | 0.802 µM | 4.48 µM | – | – | 1.04 µM | 4.52 µM | 0.844 µM | 4.39 µM
17 | Cc1ccc(NC(=O)c2ccc(NC3=C(Cl)C(=O)N(Cc4ccccc4)C3=O)cc2)cc1Cl | 3.08 µM | 13.3 µM | 24 µM | > 100 µM | 11.3 µM | 29.8 µM | 60.5 µM | > 100 µM | 14.7 µM | 66.5 µM | 12.5 µM | 25.1 µM
18 | Cc1n(Cc2ccc3ccccc3n2)cc[n+]1Cc1ccc2ccccc2c1 | 0.61 µM | 10.4 µM | 0.412 µM | 2.69 µM | 0.935 µM | 9.81 µM | 0.438 µM | 12.1 µM | 0.342 µM | 11.3 µM | 0.467 µM | 10.6 µM
19 | CCOC(=O)[C@@H]1C[C@@H]1c1ccc(O)c(O)c1 | – | 32.7 µM | – | 34.5 µM | – | > 100 µM | – | > 100 µM | – | – | – | > 100 µM
20 | COc1cc(OC)c(/C=C/C(=O)c2c(N)cc(OC)cc2OC)c(OC)c1 | 0.384 µM | > 100 µM | 0.0776 µM | 0.514 µM | 0.826 µM | > 100 µM | 0.654 µM | > 100 µM | 13.6 µM | > 100 µM | 1.77 µM | > 100 µM
21 | CCN(CC)CCS(=O)(=O)CCNc1ccnc2cc(Cl)ccc12 | 0.834 µM | 4.63 µM | 1.65 µM | > 20.5 µM | 2.1 µM | 14.9 µM | 6.69 µM | > 100 µM | 2.07 µM | > 62.2 µM | 3.82 µM | > 100 µM
